Drawing on US20190010167A1, “INHIBITORS OF THE MENIN-MLL INTERACTION” (Vitae Pharmaceuticals, Inc., priority 2015, published 2019), this text covers IC50 for 17 compounds.

By IC50 is commonly meant the concentration needed to halve the response being measured. The low end stands for greater potency in that assay, the high end for weaker potency in that assay.

Counter-ions that a name gives are not always drawn.

The target of test [1] is T1, menin/MLL (Gal4-Menin and MLL1-46-VP16) in HEK293 cells (Homo sapiens, UniProt O00255).
T1 construct: expressed in transfected cells; host or cells: HEK293 (ATCC)
T1 sequence (P04386 1-147 partner limits assumed, species assumed, one chain of several): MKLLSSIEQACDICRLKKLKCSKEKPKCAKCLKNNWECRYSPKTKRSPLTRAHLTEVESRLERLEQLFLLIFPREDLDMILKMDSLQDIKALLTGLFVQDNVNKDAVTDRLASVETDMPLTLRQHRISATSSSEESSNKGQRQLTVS
In words: Mammalian cellular two-hybrid assay in HEK293 cells (Assay 2, cell assay). The settings on record: Gal4-Menin/MLL1-46-VP16 two-hybrid, NanoLuc luciferase reporter, 16-18 h. It counts as cell-based. The procedure: Potencies of inhibitor compounds against menin/MLL were tested in a mammalian cellular two-hybrid assay system. HEK293 cells (American Type Culture Collection (ATCC); Manassas, Va.) were co-transfected with three plasmids: one encoding Gal4-Menin (200 ng per 10^6 cells), another encoding MLL1-46-VP16 (100 ng per 10^6 cells), and a reporter plasmid pNL3.3-4×UAS (500 ng per 10^6 cells) encoding secreted NanoLuc® luciferase (Promega) with the upstream 4×UAS repeats for Gal4 binding. Transfection was performed in Opti-MEM® media using Lipofectamine® LTX with Plus™ Reagent (ThermoFisher Scientific) according to manufacturer's protocol. Cells were incubated with transfection reagents at 37° C. 5% CO2 for 5-6 h, harvested by trypsinization and centrifugation at 300×g for 5 min and resuspended in Gibco® DMEM media (phenol red-free, no antibiotics) containing 10% delipidated fetal bovine serum (FBS) (ThermoFisher Scientific). Concentration of cells in the media was adjusted to 3.5×10^5 cells/ml, and 100 μl of the cell suspension was dispensed into each well of 96-well Costar™ black clear bottom cell culture plates (Fisher Scientific). Tested compounds were added as 100 μL of 2× solutions in the media. Final concentration of DMSO was 0.1% in all wells. The cells were incubated with tested compounds at 37° C. 5% CO2 for 16-18 h. At the end of the incubation, 40 μL of the conditioned media from each well was transferred into each well of 96-well Costar™ black half-area plates (Fisher Scientific), to which 40 μl of 2× reconstituted NanoGlo® luciferase assay reagent (Promega) was added and thoroughly mixed on a microshaker for 2-3 min. Remaining media in the culture plates was removed by emptying the wells and blotting the plates on filter paper. The cells were lysed with 1× CellTiter-Glo® Luminescent Cell Viability Assay reagent (Promega) for assessing toxicity of the tested compounds. Both, Nano-Glo® and CellTiter-Glo® luminescence intensities were measured on EnVision® multilabel plate reader (PerkinElmer). Percent inhibition values were calculated based on Nano-Glo® luciferase activity observed with the tested compounds vs. DMSO control and commercially available menin inhibitor MI-2-2 (4-(4-(5,5-Dimethyl-4,5-dihydrothiazol-2-yl)piperazin-1-yl)-6-(2,2,2-trifluoroethyl)thieno[2,3-d]pyrimidine) (EMD Millipore, Cat. No. 444825) incubated with cells at 5 μM. These percent inhibition values were regressed against compound concentrations in the assay using non-linear 4-parameter logit curve fitting (XLFit, IDBS). Half maximal inhibitory concentrations (IC50) were calculated as the parameters of the fit corresponding to the inflection points on semi-logarithmic dose-response curves.
Background: Reporter assays use an easily measured gene product as a stand-in for the process of interest.

The target in test [2] is T2, wild-type menin / MLL-AF9 fusion protein (Homo sapiens, UniProt O00255).
T2 construct: made in house; host or cells: E. coli (menin); HEK293 cleared lysate (MLL-AF9-FLAG)
T2 sequence (O00255 1-610): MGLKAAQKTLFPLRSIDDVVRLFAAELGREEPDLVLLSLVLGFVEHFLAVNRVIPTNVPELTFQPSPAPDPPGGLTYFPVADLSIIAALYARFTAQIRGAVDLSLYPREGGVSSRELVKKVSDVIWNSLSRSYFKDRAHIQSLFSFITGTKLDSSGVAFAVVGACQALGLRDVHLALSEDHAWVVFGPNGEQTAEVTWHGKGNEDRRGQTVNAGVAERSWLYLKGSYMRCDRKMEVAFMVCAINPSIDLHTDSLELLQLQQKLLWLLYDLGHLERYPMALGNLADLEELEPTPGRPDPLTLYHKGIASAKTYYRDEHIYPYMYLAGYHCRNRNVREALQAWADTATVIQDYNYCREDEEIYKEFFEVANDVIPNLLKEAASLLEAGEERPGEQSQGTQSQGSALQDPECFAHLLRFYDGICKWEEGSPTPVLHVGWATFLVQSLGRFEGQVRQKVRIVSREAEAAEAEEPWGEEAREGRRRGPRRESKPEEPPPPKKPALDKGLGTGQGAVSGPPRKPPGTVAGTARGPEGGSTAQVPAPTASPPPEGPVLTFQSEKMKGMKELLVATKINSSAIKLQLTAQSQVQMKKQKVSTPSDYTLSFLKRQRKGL
In words: AlphaLISA menin/MLL binding assay, wild-type menin (Assay 1). The settings on record: biotinylated wild-type menin 5 nM, MLL-AF9-FLAG lysate. Summed up: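 Biotinylated wild-type or mutated menin (5 nM, E. coli-expressed) was preincubated 30 min at RT with compound and HEK293 lysate containing MLL1-1,396–AF9 1-92–FLAG. Buffer was 50 mM Tris-HCl pH 7.4, 5% DMSO, 50 mM NaCl, 0.01% BSA, 1 mM DTT. Anti-FLAG acceptor and streptavidin donor beads (10 μg/mL each) were then added for 60 min. IC50 came from a four-parameter fit of the Alpha signal inhibition.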
Background: In Alpha technology, singlet oxygen from a donor bead excites a nearby acceptor bead.

As for `FC(F)(F)Cc1cc2c(N3CC4(CN(CC5CCCCC5)C4)C3)ncnc2s1` [Example 69, 4-(6-(cyclohexylmethyl)-2,6-diazaspiro[3.3]heptan-2-yl)-6-(2,2,2-trifluoroethyl)thieno[2,3-d]pyrimidine], the IC50 is 0.1 to 1 µM in test [1] and below 0.1 µM in test [2].
Turning to `COC1CCC(CN2CC3(C2)CN(c2ncnc4sc(CC(F)(F)F)cc24)C3)CC1` (stereo not shown) [Example 75, 4-(6-((4-methoxycyclohexyl)methyl)-2,6-diazaspiro[3.3]heptan-2-yl)-6-(2,2,2-trifluoroethyl)thieno[2,3-d]pyrimidine], the IC50 in test [1] and in test [2] was 0.1 to 1 µM throughout.
In the case of `OC1CCC(CN2CC3(C2)CN(c2ncnc4sc(CC(F)(F)F)cc24)C3)CC1` (stereo not shown) [Example 76, 4-((6-(6-(2,2,2-trifluoroethyl)thieno[2,3-d]pyrimidin-4-yl)-2,6-diazaspiro[3.3]heptan-2-yl)methyl)cyclohexan-1-ol], the figures for the IC50 in test [1] and in test [2] were 0.1 to 1 µM and below 0.1 µM, respectively.
Turning to `Cc1c(CN2CCC3(CCN(c4ncnc5ccc(CC(F)(F)F)cc45)C3)C2)ccc2[nH]c(C#N)cc12` (stereo not shown) [Example 90, 4-methyl-5-((7-(6-(2,2,2-trifluoroethyl)quinazolin-4-yl)-2,7-diazaspiro[4.4]nonan-2-yl)methyl)-1H-indole-2-carbonitrile], the IC50 is 0.1 to 1 µM in test [1] and below 0.1 µM in test [2].
Regarding `Cc1c(CN2CCC3(C2)CN(c2ncnc4sc(CC(F)(F)F)cc24)C3)ccc2[nH]c(C#N)cc12` [Example 92, 4-methyl-5-((2-(6-(2,2,2-trifluoroethyl)thieno[2,3-d]pyrimidin-4-yl)-2,6-diazaspiro[3.4]octan-6-yl)methyl)-1H-indole-2-carbonitrile], the IC50 in test [1] is 0.1 to 1 µM; in test [2] it was below 0.1 µM.
`FC(F)(F)Cc1cc2c(N3CC4(CCN(CC5CCOCC5)C4)C3)ncnc2s1` [Example 93, 4-(6-((tetrahydro-2H-pyran-4-yl)methyl)-2,6-diazaspiro[3.4]octan-2-yl)-6-(2,2,2-trifluoroethyl)thieno[2,3-d]pyrimidine]: the results for the IC50 in test [1] and in test [2] were at least 1 µM and below 0.1 µM, respectively.
Turning to `Cc1c(CN2CCC3(CC2)CN(c2ncnc4sc(CC(F)(F)F)cc24)C3)ccc2[nH]c(C#N)cc12` [Example 96, 4-methyl-5-((2-(6-(2,2,2-trifluoroethyl)thieno[2,3-d]pyrimidin-4-yl)-2,7-diazaspiro[3.5]nonan-7-yl)methyl)-1H-indole-2-carbonitrile hydrochloride], the IC50 in test [1] and in test [2] was below 0.1 µM each time.
For the compound `CS(=O)(=O)Nc1ccc(CN2CCC3(CC2)CN(c2ncnc4sc(CC(F)(F)F)cc24)C3)cc1` [Example 97, N-(4-((2-(6-(2,2,2-trifluoroethyl)thieno[2,3-d]pyrimidin-4-yl)-2,7-diazaspiro[3.5]nonan-7-yl)methyl)phenyl)methanesulfonamide], the IC50 in test [1] was 0.1 to 1 µM; in test [2], below 0.1 µM.
Turning to `FC(F)(F)Cc1cc2c(N3CC4(CCN(Cc5ccccc5)CC4)C3)ncnc2s1` [Example 98, 4-(7-benzyl-2,7-diazaspiro[3.5]nonan-2-yl)-6-(2,2,2-trifluoroethyl)thieno[2,3-d]pyrimidine], the IC50 in test [1] and in test [2] was 0.1 to 1 µM in each case.
For the compound `FC(F)(F)Cc1cc2c(N3CC4(CCN(CC5CCOCC5)CC4)C3)ncnc2s1` [Example 99, 4-(7-((tetrahydro-2H-pyran-4-yl)methyl)-2,7-diazaspiro[3.5]nonan-2-yl)-6-(2,2,2-trifluoroethyl)thieno[2,3-d]pyrimidine], the IC50 is at least 1 µM in test [1] and 0.1 to 1 µM in test [2].
Turning to `CS(=O)(=O)N[C@H]1CC[C@H](CN2CCC3(CC2)CN(c2ncnc4sc(CC(F)(F)F)cc24)C3)CC1` [Example 106, N-((1r,4r)-4-((2-(6-(2,2,2-trifluoroethyl)thieno[2,3-d]pyrimidin-4-yl)-2,7-diazaspiro[3.5]nonan-7-yl)methyl)cyclohexyl)methanesulfonamide], the values for the half-inhibitory concentration (IC50) in test [1] and in test [2] were 0.1 to 1 µM and below 0.1 µM, respectively.
As for `COC(=O)N[C@H]1CC[C@H](CN2CCC3(CC2)CN(c2ncnc4sc(CC(F)(F)F)cc24)C3)CC1` [Example 107, methyl ((1r,4r)-4-((2-(6-(2,2,2-trifluoroethyl)thieno[2,3-d]pyrimidin-4-yl)-2,7-diazaspiro[3.5]nonan-7-yl)methyl)cyclohexyl)carbamate], the results for the IC50 in test [1] and in test [2] were 0.1 to 1 µM and below 0.1 µM, respectively.
Turning to `CC(C)CN1CC2(CCN(c3ncnc4sc(CC(F)(F)F)cc34)C2)C1` [Example 108, 4-(2-isobutyl-2,6-diazaspiro[3.4]octan-6-yl)-6-(2,2,2-trifluoroethyl)thieno[2,3-d]pyrimidine], the IC50 in test [1] is 0.1 to 1 µM; in test [2], below 0.1 µM.
In the same order, the values of `FC(F)(F)Cc1cc2c(N3CCC4(CN(CC5CCOCC5)C4)C3)ncnc2s1` [Example 109, 4-(2-((tetrahydro-2H-pyran-4-yl)methyl)-2,6-diazaspiro[3.4]octan-6-yl)-6-(2,2,2-trifluoroethyl)thieno[2,3-d]pyrimidine] are 0.1 to 1 µM and 0.1 to 1 µM.
With `CCC(C)CN1CC2(CCN(c3ncnc4sc(CC(F)(F)F)cc34)C2)C1` (stereo not shown) [Example 110, 4-(2-(2-methylbutyl)-2,6-diazaspiro[3.4]octan-6-yl)-6-(2,2,2-trifluoroethyl)thieno[2,3-d]pyrimidine], the IC50 in test [1] and in test [2] was 0.1 to 1 µM in each case.
As for `O=c1[nH]c2cc(CN3CCC4(CCN(c5ncnc6cc(CC(F)(F)F)sc56)C4)C3)ccc2n1CCO` (stereo not shown) [Example 119, 1-(2-hydroxyethyl)-5-((7-(6-(2,2,2-trifluoroethyl)thieno[3,2-d]pyrimidin-4-yl)-2,7-diazaspiro[4.4]nonan-2-yl)methyl)-1H-benzo[d]imidazol-2(3H)-one], the IC50 in test [1] was 0.1 to 1 µM; in test [2], below 0.1 µM.
For `O=c1[nH]c2ccc(CN3CCC4(CCN(c5ncnc6sc(CC(F)(F)F)cc56)C4)C3)cc2n1CCO` (stereo not shown) [Example 120], the figures for the IC50 in test [1] and in test [2] were at least 1 µM and below 0.1 µM, respectively.
